Results as given in paper PMC5218480 (PLoS ONE, 2017).

Test system: MV-4-11 cells
Experiment: Gene expression microarray analysis (Affymetrix PrimeView) and GSEA
Assay type: cell-based, human
Design: RFU PODN (11730768_x_at) / Fold change /veh PODN (11730768_x_at) / RFU LINC00158 (11744669_a_at) / Fold change /veh LINC00158 (11744669_a_at) / RFU DUSP10 (11751237_a_at) / Fold change /veh DUSP10 (11751237_a_at) / RFU ID3 (11757404_x_at) / Fold change /veh ID3 (11757404_x_at) / RFU PLEKHG5 (11737974_s_at) / Fold change /veh PLEKHG5 (11737974_s_at) / RFU LRRC4B (11730491_at) / Fold change /veh LRRC4B (11730491_at) / RFU GIMAP4 (11747438_a_at) / Fold change /veh GIMAP4 (11747438_a_at) / RFU KRT8 (11758183_x_at) / Fold change /veh KRT8 (11758183_x_at) / RFU CNN1 (11734310_a_at) / Fold change /veh CNN1 (11734310_a_at) / RFU VPS37D (11726825_at) / Fold change /veh VPS37D (11726825_at) / RFU C10orf10 (11716522_x_at) / Fold change /veh C10orf10 (11716522_x_at) / RFU KIR2DL2 /// KIR2DL4 /// KIR2DL5A /// KIR2DL5B /// KIR2DS1 /// KIR2DS2 /// KIR2DS3 /// KIR2DS4 /// KIR3DL3 /// KIR3DL3 /// KIR3DS1 (11738374_at) / Fold change /veh KIR2DL2 /// KIR2DL4 /// KIR2DL5A /// KIR2DL5B /// KIR2DS1 /// KIR2DS2 /// KIR2DS3 /// KIR2DS4 /// KIR3DL3 /// KIR3DL3 /// KIR3DS1 (11738374_at) / RFU C1QL1 (11718748_at) / Fold change /veh C1QL1 (11718748_at) / RFU TMPRSS4 (11747572_a_at) / Fold change /veh TMPRSS4 (11747572_a_at) / RFU HAMP (11756126_x_at) / Fold change /veh HAMP (11756126_x_at) / RFU RNFT2 (11725882_a_at) / Fold change /veh RNFT2 (11725882_a_at) / RFU NR4A2 (11747474_a_at) / Fold change /veh NR4A2 (11747474_a_at) / RFU ABCC12 (11746883_a_at) / Fold change /veh ABCC12 (11746883_a_at) / RFU TMEM136 (11760407_x_at) / Fold change /veh TMEM136 (11760407_x_at) / RFU CLDN22 /// WWC2 (11732394_at) / Fold change /veh CLDN22 /// WWC2 (11732394_at) / RFU HLA-DPB1 (11760878_x_at) / Fold change /veh HLA-DPB1 (11760878_x_at) / RFU SPINT1 (11716480_a_at) / Fold change /veh SPINT1 (11716480_a_at) / RFU GAP43 (11754022_s_at) / Fold change /veh GAP43 (11754022_s_at) / RFU A4GNT (11735810_at) / Fold change /veh A4GNT (11735810_at) / RFU PRB3 (11715151_x_at) / Fold change /veh PRB3 (11715151_x_at) / RFU TUBB4B (11761932_at) / Fold change /veh TUBB4B (11761932_at) / RFU CAPN14 (11732068_a_at) / Fold change /veh CAPN14 (11732068_a_at) / RFU TMCC2 (11721928_a_at) / Fold change /veh TMCC2 (11721928_a_at) / RFU IRGQ (11745062_a_at) / Fold change /veh IRGQ (11745062_a_at) / RFU FAM174B (11720279_a_at) / Fold change /veh FAM174B (11720279_a_at) / RFU TMPRSS4 (11748680_a_at) / Fold change /veh TMPRSS4 (11748680_a_at) / RFU FAM212B (11763350_a_at) / Fold change /veh FAM212B (11763350_a_at) / RFU PLEKHG5 (11743358_a_at) / Fold change /veh PLEKHG5 (11743358_a_at) / RFU ZSCAN30 (11745921_a_at) / Fold change /veh ZSCAN30 (11745921_a_at) / RFU CMKLR1 (11741424_a_at) / Fold change /veh CMKLR1 (11741424_a_at) / RFU LOC101060620 /// MAPK8IP1 (11723275_at) / Fold change /veh LOC101060620 /// MAPK8IP1 (11723275_at) / RFU SPTSSB (11747773_x_at) / Fold change /veh SPTSSB (11747773_x_at) / RFU PRSS12 (11739890_at) / Fold change /veh PRSS12 (11739890_at) / RFU BIN1 (11741810_x_at) / Fold change /veh BIN1 (11741810_x_at) / RFU WNT11 (11732464_a_at) / Fold change /veh WNT11 (11732464_a_at) / RFU C10orf10 (11716521_a_at) / Fold change /veh C10orf10 (11716521_a_at) / RFU C5orf56 (11738089_at) / Fold change /veh C5orf56 (11738089_at) / RFU CYB561 (11721691_x_at) / Fold change /veh CYB561 (11721691_x_at) / RFU ANKRD19P (11752326_a_at) / Fold change /veh ANKRD19P (11752326_a_at) / RFU OR2T12 /// OR2T33 /// OR2T8 (11738714_s_at) / Fold change /veh OR2T12 /// OR2T33 /// OR2T8 (11738714_s_at) / RFU VCAN (11748164_a_at) / Fold change /veh VCAN (11748164_a_at) / RFU JSRP1 (11732532_at) / Fold change /veh JSRP1 (11732532_at) / RFU KRTAP10-11 (11738290_x_at) / Fold change /veh KRTAP10-11 (11738290_x_at) / RFU MYO3A (11730013_a_at) / Fold change /veh MYO3A (11730013_a_at) / RFU EBF3 (11725865_a_at) / Fold change /veh EBF3 (11725865_a_at) / RFU CAMK2N1 (11719241_x_at) / Fold change /veh CAMK2N1 (11719241_x_at) / RFU C5orf56 (11738088_a_at) / Fold change /veh C5orf56 (11738088_a_at) / RFU OLFML3 (11715873_a_at) / Fold change /veh OLFML3 (11715873_a_at) / RFU LOC100653217 /// NTM (11731650_a_at) / Fold change /veh LOC100653217 /// NTM (11731650_a_at) / RFU MAPK11 (11762145_a_at) / Fold change /veh MAPK11 (11762145_a_at) / RFU FIZ1 (11724087_x_at) / Fold change /veh FIZ1 (11724087_x_at) / RFU OASL (11726364_x_at) / Fold change /veh OASL (11726364_x_at) / RFU SOX15 (11748057_x_at) / Fold change /veh SOX15 (11748057_x_at) / RFU CD79A (11719716_a_at) / Fold change /veh CD79A (11719716_a_at) / RFU HIST1H1D (11736915_at) / Fold change /veh HIST1H1D (11736915_at) / RFU CASKIN2 (11723855_a_at) / Fold change /veh CASKIN2 (11723855_a_at) / RFU LOC730098 (11760151_x_at) / Fold change /veh LOC730098 (11760151_x_at) / RFU OR4N2 (11742367_at) / Fold change /veh OR4N2 (11742367_at) / RFU PRRT2 (11749266_a_at) / Fold change /veh PRRT2 (11749266_a_at) / RFU SNX32 (11753110_a_at) / Fold change /veh SNX32 (11753110_a_at) / RFU CDHR5 (11726645_a_at) / Fold change /veh CDHR5 (11726645_a_at) / RFU RCAN1 (11760418_a_at) / Fold change /veh RCAN1 (11760418_a_at) / RFU FAM167A (11723789_a_at) / Fold change /veh FAM167A (11723789_a_at) / RFU FAM26E (11764081_at) / Fold change /veh FAM26E (11764081_at) / RFU ISYNA1 (11749810_s_at) / Fold change /veh ISYNA1 (11749810_s_at) / RFU ACY1 (11761880_at) / Fold change /veh ACY1 (11761880_at) / RFU 11764098_at / Fold change /veh 11764098_at / RFU SAMD14 (11745864_x_at) / Fold change /veh SAMD14 (11745864_x_at) / RFU NPB (11741838_a_at) / Fold change /veh NPB (11741838_a_at) / RFU TMPRSS6 (11731388_a_at) / Fold change /veh TMPRSS6 (11731388_a_at) / RFU KRTAP10-2 (11738614_at) / Fold change /veh KRTAP10-2 (11738614_at) / RFU ARHGAP8 /// PRR5-ARHGAP8 (11727945_x_at) / Fold change /veh ARHGAP8 /// PRR5-ARHGAP8 (11727945_x_at) / RFU KRTAP5-7 /// NADSYN1 (11734609_at) / Fold change /veh KRTAP5-7 /// NADSYN1 (11734609_at) / RFU RASL12 (11751679_a_at) / Fold change /veh RASL12 (11751679_a_at) / RFU CDKN2B (11736163_a_at) / Fold change /veh CDKN2B (11736163_a_at) / RFU PRF1 (11729649_at) / Fold change /veh PRF1 (11729649_at) / RFU, ZNF638 /// ZNF638-IT1 / Fold change vs veh, ZNF638 /// ZNF638-IT1 / RFU, PANK3 / Fold change vs veh, PANK3 / RFU, SH3YL1 / Fold change vs veh, SH3YL1 / RFU, ZEB2 / Fold change vs veh, ZEB2 / RFU, NRIP1 / Fold change vs veh, NRIP1 / RFU, PTTG1IP / Fold change vs veh, PTTG1IP / RFU, CAPN2 / Fold change vs veh, CAPN2 / RFU, MED14 / Fold change vs veh, MED14 / RFU, SNORA58 / Fold change vs veh, SNORA58 / RFU, C1orf63 / Fold change vs veh, C1orf63 / RFU, LRRFIP1 / Fold change vs veh, LRRFIP1 / RFU, NDUFAF7 / Fold change vs veh, NDUFAF7 / RFU, SLC12A2 / Fold change vs veh, SLC12A2 / RFU, IBTK / Fold change vs veh, IBTK / RFU, ESF1 / Fold change vs veh, ESF1 / Fold change vs veh, TMEM50B / RFU, TAOK1 / Fold change vs veh, TAOK1 / RFU, ACBD3 / Fold change vs veh, ACBD3 / RFU, TMA16 / Fold change vs veh, TMA16 / RFU, RWDD3 / Fold change vs veh, RWDD3 / RFU, BCAT1 / Fold change vs veh, BCAT1 / RFU, EDEM3 / Fold change vs veh, EDEM3 / RFU, TMEM33 / Fold change vs veh, TMEM33 / RFU, WDR75 / Fold change vs veh, WDR75 / RFU, AHCTF1 / Fold change vs veh, AHCTF1 / RFU, TFRC / Fold change vs veh, TFRC / RFU, ZDHHC17 / Fold change vs veh, ZDHHC17 / RFU, NOM1 / Fold change vs veh, NOM1 / RFU, ARL8B / Fold change vs veh, ARL8B / RFU, ZBTB11 / Fold change vs veh, ZBTB11 / RFU, TAMM41 / Fold change vs veh, TAMM41 / RFU, KIAA1704 /// LOC100996395 / Fold change vs veh, KIAA1704 /// LOC100996395 / RFU, ING1 / Fold change vs veh, ING1 / RFU, TRMT61B / Fold change vs veh, TRMT61B / RFU, FUBP3 / Fold change vs veh, FUBP3 / RFU, TP53 / Fold change vs veh, TP53 / RFU, TNKS2 / Fold change vs veh, TNKS2 / RFU, ZFP14 / Fold change vs veh, ZFP14 / RFU, ACTR2 / Fold change vs veh, ACTR2 / RFU, PPP3R1 / Fold change vs veh, PPP3R1 / RFU, PIK3R1 / Fold change vs veh, PIK3R1 / RFU, HNRNPA1 / Fold change vs veh, HNRNPA1 / RFU, RNF170 / Fold change vs veh, RNF170 / RFU, ZNF28 / Fold change vs veh, ZNF28 / RFU, RNGTT / Fold change vs veh, RNGTT / RFU, OGT / Fold change vs veh, OGT / RFU, BRD1 / Fold change vs veh, BRD1 / RFU, MARS / Fold change vs veh, MARS / RFU, ZNF655 / Fold change vs veh, ZNF655 / RFU, FAHD1 / Fold change vs veh, FAHD1 / RFU, BDP1 / Fold change vs veh, BDP1 / RFU, LRRCC1 / Fold change vs veh, LRRCC1 / RFU, ARID1A / Fold change vs veh, ARID1A / RFU, ZNF146 / Fold change vs veh, ZNF146 / RFU, ZNF330 / Fold change vs veh, ZNF330 / RFU, GPN3 / Fold change vs veh, GPN3 / RFU, C9orf123 / Fold change vs veh, C9orf123 / RFU, N4BP2L2 / Fold change vs veh, N4BP2L2 / RFU, ARFIP1 / Fold change vs veh, ARFIP1 / RFU, FAM179B / Fold change vs veh, FAM179B / RFU, BCL10 / Fold change vs veh, BCL10 / RFU, UHRF1BP1L / Fold change vs veh, UHRF1BP1L / RFU, BET1 / Fold change vs veh, BET1 / RFU, CNOT2 / Fold change vs veh, CNOT2 / RFU, ZNF268 / Fold change vs veh, ZNF268 / Fold change vs veh, ZNF507 / RFU, DGCR2 / Fold change vs veh, DGCR2 / RFU, WDSUB1 / Fold change vs veh, WDSUB1 / Fold change vs veh, HSP90B1 /// MIR3652 / RFU, ADSS / Fold change vs veh, ADSS / RFU, GK / Fold change vs veh, GK / RFU, ZNF148 / Fold change vs veh, ZNF148 / RFU, TAF9 / Fold change vs veh, TAF9 / RFU, SLC1A5 / Fold change vs veh, SLC1A5 / RFU, SLMO2 / Fold change vs veh, SLMO2 / RFU, ABCC4 / Fold change vs veh, ABCC4 / RFU, LOC101060439 /// RAP1B / Fold change vs veh, LOC101060439 /// RAP1B / RFU, RFX7 / Fold change vs veh, RFX7 / RFU, GTPBP10 / Fold change vs veh, GTPBP10 / RFU, CNEP1R1 / Fold change vs veh, CNEP1R1 / RFU, BIVM-ERCC5 /// ERCC5 / Fold change vs veh, BIVM-ERCC5 /// ERCC5 / RFU, ILF3 / Fold change vs veh, ILF3 / RFU 11762660_at / Fold change /veh 11762660_at / RFU VCAN (11757783_s_at) / Fold change /veh VCAN (11757783_s_at) / RFU DDX43 (11728927_at) / Fold change /veh DDX43 (11728927_at) / RFU KRT8 (11758188_x_at) / Fold change /veh KRT8 (11758188_x_at) / RFU NKD1 (11759106_at) / Fold change /veh NKD1 (11759106_at) / RFU SRD5A1 (11742802_a_at) / Fold change /veh SRD5A1 (11742802_a_at) / RFU TPSAB1 /// TPSB2 (11721975_s_at) / Fold change /veh TPSAB1 /// TPSB2 (11721975_s_at) / RFU GSTM3 (11746129_a_at) / Fold change /veh GSTM3 (11746129_a_at) / RFU IL23R (11737362_x_at) / Fold change /veh IL23R (11737362_x_at) / RFU TMEM51 (11727254_a_at) / Fold change /veh TMEM51 (11727254_a_at) / RFU PIWIL2 (11732686_x_at) / Fold change /veh PIWIL2 (11732686_x_at) / RFU ORM1 (11744905_x_at) / Fold change /veh ORM1 (11744905_x_at) / RFU CCDC152 (11743942_at) / Fold change /veh CCDC152 (11743942_at) / RFU ECM1 (11717891_a_at) / Fold change /veh ECM1 (11717891_a_at) / RFU IL23R (11748794_a_at) / Fold change /veh IL23R (11748794_a_at) / RFU TNFAIP8L3 (11732012_x_at) / Fold change /veh TNFAIP8L3 (11732012_x_at) / RFU MBOAT4 (11741988_at) / Fold change /veh MBOAT4 (11741988_at) / RFU 11764193_at / Fold change /veh 11764193_at / RFU TMEM53 (11763286_at) / Fold change /veh TMEM53 (11763286_at) / RFU MAGEB2 (11727129_at) / Fold change /veh MAGEB2 (11727129_at) / RFU TMEM200A (11744735_a_at) / Fold change /veh TMEM200A (11744735_a_at) / RFU CCDC152 (11751479_a_at) / Fold change /veh CCDC152 (11751479_a_at) / RFU FAM211A (11726209_a_at) / Fold change /veh FAM211A (11726209_a_at) / RFU RGS16 (11746705_a_at) / Fold change /veh RGS16 (11746705_a_at) / RFU VCAN (11755009_s_at) / Fold change /veh VCAN (11755009_s_at) / RFU RHOB (11743442_s_at) / Fold change /veh RHOB (11743442_s_at) / RFU RGS16 (11720943_a_at) / Fold change /veh RGS16 (11720943_a_at) / RFU RGS16 (11720944_at) / Fold change /veh RGS16 (11720944_at) / RFU, VPS4B / Fold change vs veh, VPS4B / RFU, CREB1 / Fold change vs veh, CREB1 / RFU, DNAJC13 / Fold change vs veh, DNAJC13 / RFU, GNAQ / Fold change vs veh, GNAQ / RFU, CDK5R1 / Fold change vs veh, CDK5R1 / RFU, ZRANB3 / Fold change vs veh, ZRANB3 / RFU, CUL4A / Fold change vs veh, CUL4A / RFU, CCNY / Fold change vs veh, CCNY / RFU, UFL1 / Fold change vs veh, UFL1 / RFU, COG3 / Fold change vs veh, COG3 / RFU, DIAPH2 / Fold change vs veh, DIAPH2 / RFU, SKA2 / Fold change vs veh, SKA2 / RFU, AFF3 / Fold change vs veh, AFF3 / RFU, LMF1 / Fold change vs veh, LMF1 / RFU, IPO11 / Fold change vs veh, IPO11 / RFU, DFFB / Fold change vs veh, DFFB / RFU, FOXP1 / Fold change vs veh, FOXP1 / RFU, CARD8 / Fold change vs veh, CARD8 / RFU, STRN3 / Fold change vs veh, STRN3 / RFU, ADK / Fold change vs veh, ADK / RFU, RASSF2 / Fold change vs veh, RASSF2 / RFU, WIPF1 / Fold change vs veh, WIPF1 / RFU, LARP1B / Fold change vs veh, LARP1B / RFU, RASA1 / Fold change vs veh, RASA1 / RFU, RB1 / Fold change vs veh, RB1 / RFU, PPFIA1 / Fold change vs veh, PPFIA1 / RFU, MAT2A / Fold change vs veh, MAT2A / RFU, CCT5 / Fold change vs veh, CCT5 / RFU, WDR92 / Fold change vs veh, WDR92 / RFU, CUX1 / Fold change vs veh, CUX1 / RFU, TTC7A / Fold change vs veh, TTC7A / RFU, TMEM135 / Fold change vs veh, TMEM135 / RFU, DEPTOR / Fold change vs veh, DEPTOR / RFU, CPM / Fold change vs veh, CPM / RFU, DNAJB6 / Fold change vs veh, DNAJB6 / RFU, CACNA2D3 / Fold change vs veh, CACNA2D3 / RFU, DTX4 / Fold change vs veh, DTX4 / RFU, TFCP2 / Fold change vs veh, TFCP2 / RFU, GMCL1 /// GMCL1P1 / Fold change vs veh, GMCL1 /// GMCL1P1 / RFU, AEBP2 / Fold change vs veh, AEBP2 / RFU, SNHG1 /// SNORD22 /// SNORD25 /// SNORD26 /// SNORD27 /// SNORD28 /// SNORD29 /// SNORD31 / Fold change vs veh, SNHG1 /// SNORD22 /// SNORD25 /// SNORD26 /// SNORD27 /// SNORD28 /// SNORD29 /// SNORD31 / Fold change (Aza/veh), C12orf56 (ProbeSet 11735607_a_at) / Fold change (ACY-1035/veh), C12orf56 (ProbeSet 11735607_a_at) / Fold change (Aza/veh), FGFR1OP (ProbeSet 11751329_s_at) / Fold change (ACY-1035/veh), FGFR1OP (ProbeSet 11751329_s_at) / Fold change (Aza/veh), VPS36 (ProbeSet 11739960_a_at) / Fold change (ACY-1035/veh), VPS36 (ProbeSet 11739960_a_at) / RFU SYPL1 (11715823_x_at) / Fold change /veh SYPL1 (11715823_x_at) / RFU IGFBP7 (11715501_s_at) / Fold change /veh IGFBP7 (11715501_s_at) / RFU REEP3 (11722064_at) / Fold change /veh REEP3 (11722064_at) / RFU IGLL1 (11728026_x_at) / Fold change /veh IGLL1 (11728026_x_at): dose or concentration left out as unconfirmed
Conditions: MV-4-11 cells, 48 hours

SMILES: Nc1ncn([C@@H]2O[C@H](CO)[C@@H](O)[C@H]2O)c(=O)n1 [azacitidine]
- Fold change /veh 11764193_at: 1.69
